# ChEMBL document CHEMBL1201862, “PubChem BioAssay data set” (2004)
#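 Compound exposure: 48 hours, 5 concentrations, 96-well plates. GI50 = concentration required for 50% inhibition of growth.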 Calls of active or inactive are those of the source. Rule as the data show it: active = GI50 up to about 1.1 µM and inactive = higher.
# Columns and labels:
# Assay in all cases: NCI tumour cell line growth inhibition, 48 h
# KM-20L2 = system: KM-20L2
# MDA-N = system: MDA-N
# SW-620 = system: SW-620
# TK-10 = system: TK-10
# HCC 2998 = system: HCC 2998
# OVCAR-4 = system: OVCAR-4
# T47D = system: T47D
# NCI-H226 = system: NCI-H226
# MDA-MB-435 = system: MDA-MB-435
# Malme-3M = system: Malme-3M
# SF-268 = system: SF-268
# M19-MEL = system: M19-MEL
# U-251 = system: U-251
# MDA-MB-231 = system: MDA-MB-231
# CCRF-CEM = system: CCRF-CEM
# MOLT-4 = system: MOLT-4
# UO-31 = system: UO-31
# IGROV-1 = system: IGROV-1
# HOP-18 = system: HOP-18
# NCI-H522 = system: NCI-H522
# A549 = system: A549
# SNB-75 = system: SNB-75
# BT-549 = system: BT-549
# SNB-78 = system: SNB-78
# CAKI-1 = system: CAKI-1
# SF-539 = system: SF-539
# SN12C = system: SN12C
# UACC-257 = system: UACC-257
# SK-MEL-2 = system: SK-MEL-2
# SK-MEL-5 = system: SK-MEL-5
# SR = system: SR
# M14 = system: M14
# 786-0 = system: 786-0
# SK-OV-3 = system: SK-OV-3
# HOP-92 = system: HOP-92
# ACHN = system: ACHN
# LXFL 529 = system: LXFL 529
# HCT-15 = system: HCT-15
# UACC-62 = system: UACC-62
# NCI-H460 = system: NCI-H460
# Hs-578T = system: Hs-578T
# SNB-19 = system: SNB-19
# HCT-116 = system: HCT-116
# SF-295 = system: SF-295
# EKVX = system: EKVX
# DMS-114 = system: DMS-114
# COLO 205 = system: COLO 205
# RXF 393 = system: RXF 393
# OVCAR-8 = system: OVCAR-8
# HL-60 = system: HL-60
# K562 = system: K562
# SK-MEL-28 = system: SK-MEL-28
# KM12 = system: KM12
# NCI-H23 = system: NCI-H23
# XF498 = system: XF498
# RPMI-8226 = system: RPMI-8226
# PC-3 = system: PC-3
# LOX IMVI = system: LOX IMVI
# DLD-1 = system: DLD-1
# RXF 631 = system: RXF 631
# OVCAR-3 = system: OVCAR-3
# DMS-273 = system: DMS-273
# HOP-62 = system: HOP-62
# HT-29 = system: HT-29
# MCF7 = system: MCF7
# A498 = system: A498
# DU-145 = system: DU-145
# OVCAR-5 = system: OVCAR-5
structure (smiles),measurement,setting,value
C=C1C(=O)O[C@@H]2C[C@@H](C)[C@@H]3C=CC(=O)[C@@]3(C)[C@@H](OC(=O)CC(=O)O[C@H]3[C@@H]4C(=C)C(=O)O[C@@H]4C[C@@H](C)[C@@H]4C=CC(=O)[C@]43C)[C@H]12,GI50,KM-20L2,77.1 nM (active)
same,GI50,MDA-N,75.5 nM (active)
same,GI50,SW-620,12.9 nM (active)
same,GI50,TK-10,117 nM (active)
same,GI50,HCC 2998,146 nM (active)
same,GI50,OVCAR-4,46.8 nM (active)
same,GI50,T47D,179 nM (active)
same,GI50,NCI-H226,102 nM (active)
same,GI50,MDA-MB-435,35.6 nM (active)
same,GI50,Malme-3M,17.4 nM (active)
same,GI50,SF-268,58.2 nM (active)
same,GI50,M19-MEL,14.1 nM (active)
same,GI50,U-251,35.6 nM (active)
same,GI50,MDA-MB-231,55.2 nM (active)
same,GI50,CCRF-CEM,< 10 nM (active)
same,GI50,MOLT-4,15.3 nM (active)
same,GI50,UO-31,137 nM (active)
same,GI50,IGROV-1,173 nM (active)
same,GI50,HOP-18,110 nM (active)
same,GI50,NCI-H522,< 10 nM (active)
same,GI50,A549,431 nM (active)
same,GI50,SNB-75,136 nM (active)
same,GI50,BT-549,38.6 nM (active)
same,GI50,SNB-78,15.3 nM (active)
same,GI50,CAKI-1,23.8 nM (active)
same,GI50,SF-539,25.2 nM (active)
same,GI50,SN12C,34.8 nM (active)
same,GI50,UACC-257,25.2 nM (active)
same,GI50,SK-MEL-2,89.3 nM (active)
same,GI50,SK-MEL-5,86.9 nM (active)
same,GI50,SR,10.3 nM (active)
same,GI50,M14,23.5 nM (active)
same,GI50,786-0,19.9 nM (active)
same,GI50,SK-OV-3,256 nM (active)
same,GI50,HOP-92,29.6 nM (active)
same,GI50,ACHN,30 nM (active)
same,GI50,LXFL 529,< 11.7 nM (active)
same,GI50,HCT-15,30.9 nM
same,GI50,UACC-62,30.6 nM (active)
same,GI50,NCI-H460,161 nM (active)
same,GI50,Hs-578T,167 nM (active)
same,GI50,SNB-19,548 nM (active)
same,GI50,HCT-116,14.3 nM (active)
same,GI50,SF-295,115 nM (active)
same,GI50,EKVX,81.1 nM (active)
same,GI50,DMS-114,31.2 nM (active)
same,GI50,COLO 205,< 14.8 nM (active)
same,GI50,RXF 393,< 11.2 nM (active)
same,GI50,OVCAR-8,29.9 nM (active)
same,GI50,HL-60,< 10 nM (active)
same,GI50,K562,15.4 nM (active)
same,GI50,SK-MEL-28,39.8 nM (active)
same,GI50,KM12,47.8 nM (active)
same,GI50,NCI-H23,34.5 nM (active)
same,GI50,XF498,21.3 nM (active)
same,GI50,RPMI-8226,12.4 nM (active)
same,GI50,PC-3,146 nM (active)
same,GI50,LOX IMVI,< 33.5 nM (active)
same,GI50,DLD-1,< 10 nM (active)
same,GI50,RXF 631,98.9 nM (active)
same,GI50,OVCAR-3,33 nM (active)
same,GI50,DMS-273,33.6 nM (active)
same,GI50,HOP-62,440 nM (active)
same,GI50,HT-29,34.2 nM (active)
same,GI50,MCF7,35.6 nM (active)
same,GI50,A498,213 nM (active)
same,GI50,DU-145,2.56 µM (inactive)
same,GI50,OVCAR-5,178 nM (active)
